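These data come from cells grown in 96-well plates and exposed to compound for 48 hours at five concentrations. At the GI50, growth is halved.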 Activity calls are given as the source filed them. Cut-off read from the data, not from the text of the source: active = GI50 up to about 1.1 µM and inactive = higher.
Legend:
Experiment in all cases: growth of human tumour cells (NCI), 48 h
DMS-273 = system: DMS-273
M19-MEL = system: M19-MEL
XF498 = system: XF498
DLD-1 = system: DLD-1
HOP-18 = system: HOP-18
SNB-78 = system: SNB-78
KM-20L2 = system: KM-20L2
DMS-114 = system: DMS-114
RXF 631 = system: RXF 631

SMILES	GI50 (DMS-273)	GI50 (M19-MEL)	GI50 (XF498)	GI50 (DLD-1)	GI50 (HOP-18)	GI50 (SNB-78)	GI50 (KM-20L2)	GI50 (DMS-114)	GI50 (RXF 631)
Oc1cc(-c2ccc3c(c2)OCO3)nc2cc3c(cc12)OCO3	21.3 µM (inactive)	20.5 µM (inactive)	31.8 µM (inactive)	55.8 µM (inactive)	72.6 µM (inactive)	43 µM (inactive)	–	–	–
NC1=C(Cl)C(=O)c2ccccc2C1=O	5.82 µM (inactive)	0.518 µM (active)	11.2 µM (inactive)	8.75 µM (inactive)	9.66 µM (inactive)	25.4 µM (inactive)	9.12 µM (inactive)	3.89 µM (inactive)	–
COc1ccc(C(O)/C(=C/n2ccnc2)c2ccccc2)cc1OC (stereo not drawn)	> 100 µM (inactive)	> 100 µM (inactive)	> 100 µM (inactive)	> 100 µM (inactive)	> 100 µM (inactive)	–	> 100 µM (inactive)	> 100 µM (inactive)	> 100 µM (inactive)
C=CCNC(=O)NCCCCC(NC(C)=O)C(=O)NCc1ccccc1 (stereo not drawn)	> 100 µM (inactive)	> 100 µM (inactive)	> 100 µM (inactive)	–	> 100 µM (inactive)	–	> 100 µM (inactive)	> 100 µM (inactive)	–
CCC1(O)C(=O)OCc2c1cc1n(c2=O)Cc2c-1nc1ccccc1c2OC (stereo not drawn)	< 0.01 µM (active)	0.0438 µM (active)	–	0.488 µM (active)	0.372 µM (active)	2.13 µM (inactive)	0.0512 µM (active)	< 0.0117 µM (active)	–
COc1ccc2c(c1)Oc1cc(O)ccc1[C@@H]2c1ccccc1C(=O)NC(C)c1ccccc1 (stereo partly drawn)	14.3 µM (inactive)	15.9 µM (inactive)	–	13.9 µM (inactive)	–	13.3 µM (inactive)	14.9 µM (inactive)	12.7 µM (inactive)	–
Cc1ccc(C(=O)NCCN(C)C)c2nc3ccccc3cc12	0.467 µM (active)	2.31 µM (inactive)	1.38 µM (inactive)	1.32 µM (inactive)	1.92 µM (inactive)	13.2 µM (inactive)	0.661 µM (active)	2.78 µM (inactive)	0.817 µM (active)
N#C/C(=C1\SCC(=O)N1c1ccccc1)c1nc2ccccc2[nH]1	> 100 µM (inactive)	> 100 µM (inactive)	> 100 µM (inactive)	> 100 µM (inactive)	–	> 100 µM (inactive)	> 100 µM (inactive)	> 100 µM (inactive)	–
CCN(CC)CC(C(=O)Nc1c(C)cccc1C)/C(C)=N\NC(=O)c1ccncc1 (stereo not drawn)	> 100 µM (inactive)	> 100 µM (inactive)	> 100 µM (inactive)	> 100 µM (inactive)	> 100 µM (inactive)	> 100 µM (inactive)	–	> 100 µM (inactive)	> 100 µM (inactive)
Cc1ccc(NC(=O)CC/C(CC(=O)C(C)(C)C)=N\NC(=O)C[n+]2ccccc2)cc1C	> 100 µM (inactive)	> 100 µM (inactive)	87.7 µM (inactive)	–	> 100 µM (inactive)	> 100 µM (inactive)	> 100 µM (inactive)	73.6 µM (inactive)	–
COC(=O)N/N=C(\C(=O)Nc1cccc([N+](=O)[O-])c1)c1nc2ccc([N+](=O)[O-])cc2nc1O	–	74.3 µM (inactive)	0.494 µM (active)	> 100 µM (inactive)	> 100 µM (inactive)	–	13.9 µM (inactive)	8.09 µM (inactive)	–
O=C(O)CNS(=O)(=O)c1ccc(NC(=O)CI)cc1	17.7 µM (inactive)	32.4 µM (inactive)	14.6 µM (inactive)	26.9 µM (inactive)	34.3 µM (inactive)	–	23.1 µM (inactive)	–	16.4 µM (inactive)
COP(=O)(OC)C(NC(=O)C(F)(F)F)(c1ccccc1)C(F)(F)F (stereo not drawn)	> 100 µM (inactive)	> 100 µM (inactive)	> 100 µM (inactive)	> 100 µM (inactive)	> 100 µM (inactive)	–	> 100 µM (inactive)	> 100 µM (inactive)	–
O=[N+]([O-])c1cnn(C2=CNc3ccccc3N=C2)c1	> 100 µM (inactive)	> 100 µM (inactive)	> 100 µM (inactive)	> 100 µM (inactive)	> 100 µM (inactive)	> 100 µM (inactive)	> 100 µM (inactive)	–	> 100 µM (inactive)
Cc1ccc2c(ccc(/C=C\c3cc(C)c4cccnc4c3O)[n+]2C)c1	0.352 µM (active)	–	–	0.849 µM (active)	1.81 µM (inactive)	–	2.84 µM (inactive)	0.811 µM (active)	–
CC(C)(C)CC(C)(C)NCC(O)COc1ccc(C(C)(C)c2ccc(OCC(O)CNC(C)(C)CC(C)(C)C)cc2)cc1 (stereo not drawn)	1.04 µM (active)	1.53 µM (inactive)	1.64 µM (inactive)	0.832 µM (active)	–	1.95 µM (inactive)	1.47 µM (inactive)	1.76 µM (inactive)	–
COC(=O)C1=C(C[S+]([O-])c2ccc([N+](=O)[O-])cc2[N+](=O)[O-])C2C=CC1C2 (stereo not drawn)	20.2 µM (inactive)	20.1 µM (inactive)	28.5 µM (inactive)	19.1 µM (inactive)	29.4 µM (inactive)	48.3 µM (inactive)	22 µM (inactive)	23.4 µM (inactive)	17.8 µM (inactive)
N#CC(C#N)=c1ccc(=C2NCC3CCCN23)cc1 (stereo not drawn)	> 100 µM (inactive)	> 100 µM (inactive)	–	–	> 100 µM (inactive)	> 100 µM (inactive)	> 100 µM (inactive)	> 100 µM (inactive)	–
CCOC(=O)/C(C)=C(/O)C(=O)OCC	> 100 µM (inactive)	–	> 100 µM (inactive)	> 100 µM (inactive)	> 100 µM (inactive)	> 100 µM (inactive)	–	> 100 µM (inactive)	> 100 µM (inactive)
COC1O[C@@H]2COC(C)(C)O[C@@H]2C(=O)N1Nc1ccc([N+](=O)[O-])cc1 (stereo partly drawn)	> 100 µM (inactive)	> 100 µM (inactive)	> 100 µM (inactive)	35.1 µM (inactive)	> 100 µM (inactive)	–	> 100 µM (inactive)	–	–
COC(=O)[C@@]12C3=NO[C@]1(C(=O)OC)C(O[Si](C)(C)C(C)(C)C)C1OC(C)(C)OC1[C@@H]2[C@@H](OCc1ccccc1)CC3 (stereo partly drawn)	51.4 µM (inactive)	> 100 µM (inactive)	–	> 100 µM (inactive)	> 100 µM (inactive)	–	> 100 µM (inactive)	49.5 µM (inactive)	–
CC(C)(O)C(O)COc1c2c(cc3oc(=O)ccc13)OCO2 (stereo not drawn)	> 100 µM (inactive)	> 100 µM (inactive)	> 100 µM (inactive)	> 100 µM (inactive)	> 100 µM (inactive)	–	> 100 µM (inactive)	> 100 µM (inactive)	–

Reference: ChEMBL document CHEMBL1201862, “PubChem BioAssay data set” (2004)
